Assay results from US6541486B1, “Bis-benzimidazole compounds and analogs thereof for inhibiting cell death” (Elan Pharma International Ltd., priority 1999, dated 2003).

Experiments:
[1] = test system: Oxygen/Glucose Deprived RGCs (retinal ganglion cells); assay: Protection of oxygen/glucose deprived (OGD) retinal ganglion cells, EC50; conditions: overall judgement
Experimental: Each compound was added to control cells and to cells deprived of oxygen and glucose for the time period from 30 minutes prior to OGD, during OGD, and for 24 and 48 hours after OGD.
RGCs from postnatal day 8 (P8) Sprague-Dawley rats were purified as previously described (Barres et al., 1988; Meyer-Franke et al., 1995). Purified retinal ganglion cells were plated onto tissue culture plastic precoated with poly-D-lysine and merosin, and cultured in serum-free Neurobasal medium (Gibco) containing various supplements.
Approximately 5,000 purified RGCs were cultured in 96-well plates (Falcon), precoated with poly-D-lysine (PDL, 70 kD, 10 mg/ml; Sigma) and merosin (2 mg/ml; Gibco). The RGCs were cultured in serum-free Neurobasal medium (Brewer et al., 1993; Gibco) containing Sato-Bottenstein and B27 (Gibco) supplement, insulin (Sigma, 5 mg/ml), brain-derived neurotrophic factor (BDNF, 25 ng/ml; Preprotech), ciliary neurotrophic factor (CNTF, 20 ng/ml; Preprotech) and forskolin (10 mM, Sigma). The percentage of surviving cells was assessed at 3, 7, and 14 days by the MTT assay.
Retinal ganglion cells were grown in 96-well plates for 5 days in serum-free medium as described above. On the sixth day cells were washed three times in a salt solution, e.g. Earle's balanced salt solution (EBSS, Gibco), containing glucose for control cells, and lacking glucose for test cells (oxygen/glucose-deprived cells). Control cells were further incubated in a 5% CO2 incubator while OGD cells were deprived of oxygen in an anaerobic chamber (for 3 hours). Test compounds were added to control cells and OGD cells for the time period from 30 minutes prior to OGD, during OGD, and for 24 and 48 hours after OGD.
After 3 hours OGD, control and test cells were transferred to growth medium with glucose and cultured an additional 48 hours in a 5% CO2 incubator, followed by a determination of cell viability using MTT, propidium iodide and annexin assays.
For the cell viability assay, MTT was added to culture and incubated at 37° C. for 1 hr. […] Viable and dead cells are counted by bright field microscopy at various times, e.g. 24, 48, or 72 hours after oxygen/glucose and/or growth factor deprivation. All values are reported as the mean (average) +/− the standard error of the mean (SEM) for at least three replicate cultures.

[2] = test system: OGD cells (retinal ganglion cells); assay: Increase in survival of OGD cells at fixed concentrations (similar assay); format: cell-based, rat; parameters: key: +: up to 50% increase; ++: 50%-100% increase; +++: >100% increase; —: negligible or no increase

Structure (SMILES) | Effectiveness in protecting OGD RGCs (in words, from Tables 5 and 6) [1] | Percent Increase in Survival over OGD Control Cells ([2]; Concn 0.01 μM) | Percent Increase in Survival over OGD Control Cells ([2]; Concn 0.1 μM) | Percent Increase in Survival over OGD Control Cells ([2]; Concn 10 μM) | Percent Increase in Survival over OGD Control Cells ([2]; Concn .1 μM) | Percent Increase in Survival over OGD Control Cells ([2]; Concn 1 μM) | Percent Increase in Survival over OGD Control Cells ([2]; Concn 0.001 μM)
CC1(C)CN=C(Cc2nc3ccccc3[nH]2)N1 [SNX 1020, 2-(5,5-Dimethyl-4,5-dihydro-1H-imidazol-2-ylmethyl)-1H-benzimidazole] | very effective |  |  |  |  |  | 
O=[N+]([O-])c1cccc2[nH]c(Cc3nc4ccccc4[nH]3)nc12 [SNX 900, 2-(1H-benzimidazol-2-ylmethyl)4-nitro-1H-benzimidazole] | more effective overall than the unsubstituted compound | ++ (50%-100% increase) | +++ (>100% increase) | + (up to 50% increase) | ++ (50%-100% increase) |  | 
O=[N+]([O-])c1ccc2[nH]c(Cc3nc4ccc([N+](=O)[O-])cc4[nH]3)nc2c1 [SNX 897, 5,5′-dinitro*] |  | ++ (50%-100% increase) | ++ (50%-100% increase) |  |  | ++ (50%-100% increase) | 
CN1CCN=C1CCc1nc2ccccc2n1C [SNX 1771] | very effective |  |  |  |  |  | 
N#Cc1ccc2[nH]c(Cc3nc4ccc(C#N)cc4[nH]3)nc2c1 [SNX 931, 5,5′-dicyano*] |  | + (up to 50% increase) | + (up to 50% increase) | ++ (50%-100% increase) |  | — | —
Cn1c(Cc2nc3ccccc3n2C)nc2ccccc21 [SNX 910, 1,1′-dimethyl*] |  | ++ (50%-100% increase) | ++ (50%-100% increase) | + (up to 50% increase) | +++ (>100% increase) |  | 
c1cnc2[nH]c(Cc3nc4cccnc4[nH]3)nc2c1 [SNX 911, 2,2′-methylenebis(4-azabenzimidazole)] | very effective |  |  |  |  |  | 
c1ccc2[nH]c(CC3=NCCCN3)nc2c1 [SNX 1818, 2-(3,4,5,6-tetrahydropyrimidin-2-yl)methyl benzimidazole] | very effective |  |  |  |  |  | 
Clc1ccc2[nH]c(Cc3nc4ccccc4[nH]3)nc2c1 [SNX 899, 5-chloro*] |  | + (up to 50% increase) | ++ (50%-100% increase) | + (up to 50% increase) | ++ (50%-100% increase) | ++ (50%-100% increase) | 
O=C(c1ncc[nH]1)c1ncc[nH]1 [SNX 951, di(imidazol-2-yl)methanone] | very effective |  |  |  |  |  | 
Nc1cccc2[nH]c(Cc3nc4c(N)cccc4[nH]3)nc12 [SNX 903, 4,4′-diamino*] | more effective overall than the unsubstituted compound | +++ (>100% increase) | +++ (>100% increase) | ++ (50%-100% increase) | +++ (>100% increase) |  | 
CC(c1nc2ccccc2[nH]1)c1nc2ccccc2[nH]1 [SNX 925, 2,2′-ethylidenebisbenzimidazole] | very effective | +++ (>100% increase) | +++ (>100% increase) | +++ (>100% increase) |  | +++ (>100% increase) | ++ (50%-100% increase)
Nc1cccc2[nH]c(Cc3nc4cc(Cl)ccc4[nH]3)nc12 [SNX 923, 2-[(5-Chloro-1H-benzimidazol-2-yl)methyl]-1H-benzimidazol-4-amine] | more effective overall than the unsubstituted compound | +++ (>100% increase) | +++ (>100% increase) | +++ (>100% increase) |  | +++ (>100% increase) | +++ (>100% increase)
CN1CCN=C1Cc1nc2ccccc2[nH]1 [SNX 1019, 2-(1-methyl-4,5-dihydroimidazol-2-yl)methyl benzimidazole] | very effective |  |  |  |  |  | 
CN1CC[N+](C)=C1Cc1nc2ccccc2[nH]1 [SNX 980, 2-(1,3-Dimethyl-4,5-dihydro-1H-imidazol-2-ylmethyl)-1H-benzimidazole] | very effective |  |  |  |  |  | 
c1ccc2[nH]c(Cc3nc4ccccc4[nH]3)nc2c1 [SNX 857] |  | + (up to 50% increase) | +++ (>100% increase) | +++ (>100% increase) | ++ (50%-100% increase) |  | 
Nc1ccc2[nH]c(Cc3nc4ccc(N)cc4[nH]3)nc2c1 [SNX 898, 5,5′-diamino*] |  | + (up to 50% increase) | + (up to 50% increase) | — |  | + (up to 50% increase) | 
c1ccc(CN2CCN=C2Cc2nc3ccccc3[nH]2)cc1 [SNX 979, 2-(1-benzyl-4,5-dihydroimidazol-2-yl)methyl benzimidazole] | very effective |  |  |  |  |  | 
Cc1nc(-c2nc(C)c(C)[nH]2)[nH]c1C [SNX 939, 2,2′-bis(4,5-dimethylimidazole)] | very effective |  |  |  |  |  | 
O=[N+]([O-])c1cccc2[nH]c(Cc3nc4c([N+](=O)[O-])cccc4[nH]3)nc12 [SNX 901, 4,4′-dinitro*] | more effective overall than the unsubstituted compound | ++ (50%-100% increase) | ++ (50%-100% increase) | +++ (>100% increase) | +++ (>100% increase) |  | 
Fc1cccc2[nH]c(Cc3nc4c(F)cccc4[nH]3)nc12 [SNX 930, 4,4′-difluoro*] | more effective overall than the unsubstituted compound | +++ (>100% increase) | + (up to 50% increase) | ++ (50%-100% increase) |  | ++ (50%-100% increase) | + (up to 50% increase)
Oc1cccc2[nH]c(Cc3nc4c(O)cccc4[nH]3)nc12 [SNX 909, 4,4′-dihydroxyl*] | more effective overall than the unsubstituted compound | + (up to 50% increase) | ++ (50%-100% increase) | + (up to 50% increase) | +++ (>100% increase) |  | 
c1ccc2[nH]c(CC3=NCCN3)nc2c1 [SNX 978, 2-(4,5-dihydroimidazol-2-yl)methyl benzimidazole] | very effective |  |  |  |  |  | 
c1ccc2[nH]c(CC3=NCCCCN3)nc2c1 [SNX 1819, 2-(4,5,6,7-tetrahydro-1,3-diazepin-2-yl)methyl benzimidazole] | very effective |  |  |  |  |  | 
NC(c1ncc[nH]1)c1ncc[nH]1 [SNX 949, 2,2′-(aminomethylene)bisimidazole] | very effective |  |  |  |  |  | 
